Results as given in paper PMC10580319, “Quantitative Imaging of the Action of vCPP2319, an Antimicrobial Peptide from a Viral Scaffold, against Staphylococcus aureus Biofilms of a Clinical Isolate” (ACS Infectious Diseases, 2023).
Where no end group is shown, it is not given here.

What was measured:
[1] = in vitro; assay type: in vitro ADME, human; conditions: 37 °C
Method: vCPP2319 at final concentrations of 50, 100, 200, and 500 μM was incubated with 25% (v/v in H2O) human serum (Sigma-Aldrich) at 37 °C, with gentle swirling. At different time points (0, 1, 5, 10, 30, 60 120, 360, and 1440 min), 120 μL aliquots were taken and treated with 20 μL of 5% perchloric acid (v/v in H2O) for 30 min at 4 °C, to stop the proteolytic reaction. To determine the maximum peptide intensity (100% intact peptide; t0), serum proteins were first precipitated, followed by the addition of the peptide. Controls of serum without peptide and peptide not incubated in serum were also included in the assay. Samples were next centrifuged at 13 000g for 10 min to remove serum proteins. The supernatants were analyzed by reversed-phase HPLC (RP-HPLC) and LC–mass spectrometry (LC-MS). The percentage of intact peptide was calculated by RP-HPLC peak integration, expressed as percent of the amount at t0, and data were fitted to a monoexponential decay model using GraphPad Prism 7.0 to estimate the peptide half-life (t1/2). Analytical RP-HPLC was performed on a LC-20AD instrument (Shimadzu, Kyoto, Japan) equipped with a Luna C18 column (4.6 × 50 mm, 3 μm; Phenomenex, Torrance, CA, USA) using linear gradients of solvent B (0.036% (v/v) trifluoroacetic acid (TFA) in acetonitrile (ACN)) into A (0.045% (v/v) TFA in H2O) over 15 min, at a flow rate of 1 mL/min and UV detection at 220 nm. MS analysis was performed on an LC-MS 2010EV instrument (Shimadzu) fitted with an XBridge C18 column (4.6 mm × 150 mm, 3.5 μm, Waters, Cerdanyola del Valles, Spain), eluting with linear gradients of F (0.08% (v/v) formic acid [FA] in ACN) into E (0.1% (v/v) FA in H2O) over 15 min at 1 mL/min flow rate.[45]
1 - vCPP2319 stability in human serum
Figure S1 – vCPP2319 stability in human serum. Variable concentrations of the peptide were incubated with 25% (v/v in H2O) human serum for 0, 30, 60 and 120 min.
The intact peptide was separated from degradation products by HPLC using a 0 – 95% ACN gradient over 15 min. Afterwards, the percentage of intact peptide (Figure 1C) was calculated by chromatograms peak integration.
(1 picture or pasted object on this page, not shown here)

[2] = Dynamic light scattering, self-assembly; assay type: physicochemical; conditions: DLS, in PBS, preincubated 4 h at 25 °C, 50, 100, 200 and 500 μM, two independent experiments (Figure S2)
Method: DLS experiments were carried out on a Zetasizer Nano ZS instrument from Malvern (Worcestershire, UK). vCPP2319, in PBS, was preincubated for 4 h, at 25 °C, at different concentrations (50, 100, 200, and 500 μM). The Z-average hydrodynamic diameter was measured using DLS in particle size analysis mode. For each experiment, a single measurement, corresponding to an autocorrelation curve averaged from a minimum of 20 runs, was performed. All measurements were performed at 25 °C. Data were obtained from two independent experiments.

[3] = test system: S. aureus clinical isolate biofilms; experiment: Crystal violet binding assay, biofilm biomass, with global mass and density ratios; assay type: cell-based, Staphylococcus aureus
Method: (§1) The effect of vCPP2319 on 24 h-preformed S. aureus biofilms was evaluated using three distinct methods, as previously described:[24] the metabolic activity and viability of biofilm-embedded cells was determined using a resazurin reduction fluorometric assay and a colony count assay, respectively. The total biofilm biomass was quantified by using a crystal violet assay.
Crystal violet is a basic dye that binds to negatively charged molecules, such as those in biofilms EPS matrix and on bacterial membrane surface.[51]S. aureus suspensions at 1 × 10^6 CFU/mL were incubated in a 96-well microtiter clear flat-bottomed polystyrene plate (Corning) for 24 h at 37 °C. […] (EC 3.2.1.1), ranging from 0.0078 to 0.5 mg/mL, for 4 h at 37 °C. Untreated biofilms were used as a control. Biofilms were washed twice with MHB and incubated with 0.25% (v/v in sterile Milli-Q water) crystal violet (Sigma-Aldrich) for 30 min at room temperature. After each sample was washed three times with MHB, crystal violet was solubilized with 95% (v/v) ethanol (Carlo Erba Reagents S.A.S., France) by repeated pipetting. Biofilm biomass was quantified by measuring the absorbance at 590 nm of each sample in an infinite M200 microplate reader (Tecan). The percentage of crystal violet staining was determined relative to the control after blank (0.25% (v/v) crystal violet in sterile Milli-Q water) correction.
The mean emission fluorescence intensity of WGA integrated over a plane xy at a specific depth, z, If,WGA,xy, is proportional to the mass of polysaccharides in that plane.

[4] = test system: S. aureus ATCC 6538 biofilms; experiment: Colony count assay on 24 h-preformed biofilms; assay type: cell-based, Staphylococcus aureus; conditions: 25 or 50 μM, 4 h, colony count (Figure 2C)
Method: as §1
(§2) S. aureus suspensions at 1 × 10^6 CFU/mL were incubated in a sterile 96-well microtiter clear flat-bottomed polystyrene plate (Corning) for 24 h at 37 °C. Nonadherent bacteria were removed after a washing step with MHB, and preformed biofilms were incubated in the absence or presence of vCPP2319 at 25 or 50 μM, for 4 h at 37 °C. Untreated biofilms were used as a control. To evaluate the effect of vCPP2319 redosing on biofilm-embedded bacteria, 24 h-preformed biofilms were incubated in the absence or presence of vCPP2319 at 25 μM, for 4 h at 37 °C. After a washing step with MHB, biofilms were further incubated in the absence or presence of an additional dose of vCPP2319 at 25 or 50 μM, for 4 h at 37 °C. In both experimental settings, after two washing steps with PBS, the biofilms were resuspended in PBS, followed by cell scrapping with a pipet tip as described elsewhere.[49],[50] […] After incubation, the biofilms were removed by cell scrapping with a pipet tip as described elsewhere.[49],[50] In all experimental settings, aliquots were vortexed at high speed, serially diluted in PBS and plated on nutrient-rich trypcase soy agar (TSA) plates (bioMérieux, Marcy l’Etoile, France). After incubation for 24 h at 37 °C, bacterial colonies were counted, and viable bacteria (in CFU/mL) were reported as percentage of the control.

[5] = test system: S. aureus clinical isolate biofilms; experiment: Colony count assay on 24 h-preformed biofilms; assay type: cell-based, Staphylococcus aureus; conditions: mean ± SD
Method: as §1, §2

WRRRYRRWRRRRRWRRRPRR-NH2 [vCPP2319]
half-life at 50 μM ([1]; 50 μM peptide, 25% (v/v in H2O) human serum, RP-HPLC peak integration, monoexponential decay fit, 95% CI 139–401, read-out: half-life (t1/2) in human serum): 3.45 h
half-life at 100 μM ([1]; 100 μM peptide, 25% (v/v in H2O) human serum, RP-HPLC peak integration, monoexponential decay fit, 95% CI 234–542, read-out: half-life (t1/2) in human serum): 5.43 h
half-life at 200 μM ([1]; 200 μM peptide, 25% (v/v in H2O) human serum, RP-HPLC peak integration, monoexponential decay fit, 95% CI 327–490, read-out: half-life (t1/2) in human serum): 6.53 h
half-life at 500 μM ([1]; 500 μM peptide, 25% (v/v in H2O) human serum, RP-HPLC peak integration, monoexponential decay fit, 95% CI 368–2107, read-out: half-life (t1/2) in human serum): 10.4 h
remaining at 1 h ([1]; after 1 h incubation, all concentrations studied (50, 100, 200, 500 μM), 25% (v/v) human serum, RP-HPLC, read-out: intact peptide remaining): > 60%
self-assembly [2]: self-assemble into nanoparticles
biofilm biomass reduction ([3]; 24 h-preformed biofilms, 4 h treatment, crystal violet, relative to untreated biofilm): approximately 30%
mi/mcontrol (global) eq 7 ([3]; fold variation relative to untreated biofilm, fraction of crystal violet absorbance retained): 0.7
ρi/ρcontrol (global) eq 8 ([3]; fold variation relative to untreated biofilm, from crystal violet data and biofilm volume, for both agents fi assumed as for α-amylase alone): 1.2
viability of biofilm-embedded cells [4]: decreased bacterial viability
percentage of viable cells ([5]; 25 μM for 4 h, then second treatment at 25 μM for 4 h): 27.6 ± 13.6%
percentage of viable cells ([5]; 25 μM for 4 h, then second treatment at 50 μM for 4 h): 9.4 ± 4.7%
percentage of viable cells ([5]; first treatment 25 μM for 4 h, relative to untreated biofilm): 44.7 ± 4.3%
